In patent US20200267980A1, “Herbicidally Active Pyridyl-/Pyrimidyl-Pyrimidine Derivatives” (Syngenta Participations AG, priority 2017, published 2020):

Legend:
Type in all cases: in vivo
[1] = system: Avena fatua (AVEFA); experiment: Post-emergence herbicidal activity, glasshouse pot test; conditions: 1000 g/ha, post-emergence spray after 8 days cultivation, evaluated after 13 days, damage score 0-5
Protocol: (§1) Seeds of a variety of test species were sown in standard soil in pots: Triticum aestivium (TRZAW), Avena fatua (AVEFA), Alopecurus myosuroides (ALOMY), Echinochloa crus-galli (ECHCG), Lolium perenne (LOLPE), and Setaria faberi (SETFA). After 8 days cultivation (post-emergence) under controlled conditions in a glasshouse (at 24/16° C., day/night; 14 hours light; 65% humidity), the plants were sprayed with an aqueous spray solution derived from the formulation of the technical active ingredient in acetone/water (50:50) solution containing 0.5% Tween 20 (polyoxyethelyene sorbitan monolaurate, CAS RN 9005-64-5). The test plants were then grown in a glasshouse under controlled conditions (at 24/16° C., day/night; 14 hours light; 65% humidity) and watered twice daily. After 13 days, the test was evaluated (5=total damage to plant; 0=no damage to plant).

[2] = system: Setaria faberi (SETFA); experiment: Pre-emergence herbicidal activity, glasshouse pot test; parameters: key: 5=total damage to plant; 0=no damage to plant; conditions: 1000 g/ha, pre-emergence spray, evaluated after 13 days, damage score 0-5
Protocol: as §1, with “After” for “After 8 days”, “for one day (pre-emergence)” for “(post-emergence)”

[3] = system: Alopecurus myosuroides (ALOMY); experiment: as above; parameters: key: 5=total damage to plant; 0=no damage to plant; conditions: 1000 g/ha, pre-emergence spray, evaluated after 13 days, damage score 0-5
Protocol: as §1, with “After” for “After 8 days”, “for one day (pre-emergence)” for “(post-emergence)”

[4] = system: Lolium perenne (LOLPE); experiment: as above; parameters: key: 5=total damage to plant; 0=no damage to plant; conditions: 1000 g/ha, pre-emergence spray, evaluated after 13 days, damage score 0-5
Protocol: as §1, with “After” for “After 8 days”, “for one day (pre-emergence)” for “(post-emergence)”

[5] = system: Avena fatua (AVEFA); experiment: as above; parameters: key: 5=total damage to plant; 0=no damage to plant; conditions: 1000 g/ha, pre-emergence spray, evaluated after 13 days, damage score 0-5
Protocol: as §1, with “After” for “After 8 days”, “for one day (pre-emergence)” for “(post-emergence)”

[6] = system: Triticum aestivium (TRZAW); experiment: as above; parameters: key: 5=total damage to plant; 0=no damage to plant; conditions: 1000 g/ha, pre-emergence spray, evaluated after 13 days, damage score 0-5
Protocol: as §1, with “After” for “After 8 days”, “for one day (pre-emergence)” for “(post-emergence)”

[7] = system: Echinochloa crus-galli (ECHCG); experiment: as above; parameters: key: 5=total damage to plant; 0=no damage to plant; conditions: 1000 g/ha, pre-emergence spray, evaluated after 13 days, damage score 0-5
Protocol: as §1, with “After” for “After 8 days”, “for one day (pre-emergence)” for “(post-emergence)”

[8] = system: Setaria faberi (SETFA); experiment: Post-emergence herbicidal activity, glasshouse pot test; parameters: key: 5=total damage to plant; 0=no damage to plant; conditions: 1000 g/ha, post-emergence spray after 8 days cultivation, evaluated after 13 days, damage score 0-5
Protocol: as §1

[9] = system: Alopecurus myosuroides (ALOMY); experiment: as above; parameters: key: 5=total damage to plant; 0=no damage to plant; conditions: 1000 g/ha, post-emergence spray after 8 days cultivation, evaluated after 13 days, damage score 0-5
Protocol: as §1

[10] = system: Lolium perenne (LOLPE); experiment: as above; parameters: key: 5=total damage to plant; 0=no damage to plant; conditions: 1000 g/ha, post-emergence spray after 8 days cultivation, evaluated after 13 days, damage score 0-5
Protocol: as §1

[11] = system: Triticum aestivium (TRZAW); experiment: as above; parameters: key: 5=total damage to plant; 0=no damage to plant; conditions: 1000 g/ha, post-emergence spray after 8 days cultivation, evaluated after 13 days, damage score 0-5
Protocol: as §1

[12] = system: Echinochloa crus-galli (ECHCG); experiment: as above; parameters: key: 5=total damage to plant; 0=no damage to plant; conditions: 1000 g/ha, post-emergence spray after 8 days cultivation, evaluated after 13 days, damage score 0-5
Protocol: as §1

CC(C)=CC(=O)Nc1cnc(-c2cncc(F)c2)nc1C(F)(F)F [Compound F24]
Control of weed species after post-emergence application, AVEFA [1]: 3
Control of weed species after pre-emergence application, SETFA [2]: 5
Control of weed species after pre-emergence application, ALOMY [3]: 0
Control of weed species after pre-emergence application, LOLPE [4]: 1
Control of weed species after pre-emergence application, AVEFA [5]: 1
Control of weed species after pre-emergence application, TRAZW [6]: 1
Control of weed species after pre-emergence application, ECHCG [7]: 2
Control of weed species after post-emergence application, SETFA [8]: 4
Control of weed species after post-emergence application, ALOMY [9]: 1
Control of weed species after post-emergence application, LOLPE [10]: 1
Control of weed species after post-emergence application, TRAZW [11]: 1
Control of weed species after post-emergence application, ECHCG [12]: 5

O=C(Nc1cnc(-c2cncc(F)c2)nc1C(F)(F)F)C(Cl)Cl [Compound F8]
Control of weed species after post-emergence application, AVEFA [1]: 2
Control of weed species after pre-emergence application, SETFA [2]: 4
Control of weed species after pre-emergence application, ALOMY [3]: 0
Control of weed species after pre-emergence application, LOLPE [4]: 1
Control of weed species after pre-emergence application, AVEFA [5]: 1
Control of weed species after pre-emergence application, TRAZW [6]: 1
Control of weed species after pre-emergence application, ECHCG [7]: 4
Control of weed species after post-emergence application, SETFA [8]: 5
Control of weed species after post-emergence application, ALOMY [9]: 1
Control of weed species after post-emergence application, LOLPE [10]: 2
Control of weed species after post-emergence application, TRAZW [11]: 1
Control of weed species after post-emergence application, ECHCG [12]: 4

O=C(Nc1cnc(-c2cncc(F)c2)nc1C(F)(F)F)C1CCC1 [Compound F26]
Control of weed species after post-emergence application, AVEFA [1]: 4
Control of weed species after pre-emergence application, SETFA [2]: 4
Control of weed species after pre-emergence application, ALOMY [3]: 0
Control of weed species after pre-emergence application, LOLPE [4]: 0
Control of weed species after pre-emergence application, AVEFA [5]: 1
Control of weed species after pre-emergence application, TRAZW [6]: 1
Control of weed species after pre-emergence application, ECHCG [7]: 3
Control of weed species after post-emergence application, SETFA [8]: 5
Control of weed species after post-emergence application, ALOMY [9]: 1
Control of weed species after post-emergence application, LOLPE [10]: 2
Control of weed species after post-emergence application, TRAZW [11]: 1
Control of weed species after post-emergence application, ECHCG [12]: 5

CCC(=O)Nc1cnc(-c2cncc(F)c2)nc1C(F)(F)F [Compound F4]
Control of weed species after post-emergence application, AVEFA [1]: 4
Control of weed species after pre-emergence application, SETFA [2]: 4
Control of weed species after pre-emergence application, ALOMY [3]: 1
Control of weed species after pre-emergence application, LOLPE [4]: 0
Control of weed species after pre-emergence application, AVEFA [5]: 3
Control of weed species after pre-emergence application, TRAZW [6]: 0
Control of weed species after pre-emergence application, ECHCG [7]: 3
Control of weed species after post-emergence application, SETFA [8]: 4
Control of weed species after post-emergence application, ALOMY [9]: 0
Control of weed species after post-emergence application, LOLPE [10]: 2
Control of weed species after post-emergence application, TRAZW [11]: 1
Control of weed species after post-emergence application, ECHCG [12]: 4

O=C(C1CC1)N(C(=O)C1CC1)c1cnc(-c2cncc(F)c2)nc1C(F)(F)F [Compound F21]
Control of weed species after post-emergence application, AVEFA [1]: 3
Control of weed species after pre-emergence application, SETFA [2]: 4
Control of weed species after pre-emergence application, ALOMY [3]: 0
Control of weed species after pre-emergence application, LOLPE [4]: 0
Control of weed species after pre-emergence application, AVEFA [5]: 0
Control of weed species after pre-emergence application, TRAZW [6]: 0
Control of weed species after pre-emergence application, ECHCG [7]: 1
Control of weed species after post-emergence application, SETFA [8]: 5
Control of weed species after post-emergence application, ALOMY [9]: 1
Control of weed species after post-emergence application, LOLPE [10]: 2
Control of weed species after post-emergence application, TRAZW [11]: 1
Control of weed species after post-emergence application, ECHCG [12]: 3

COCC(=O)Nc1cnc(-c2cncc(F)c2)nc1C(F)(F)F [Compound F3]
Control of weed species after post-emergence application, AVEFA [1]: 4
Control of weed species after pre-emergence application, SETFA [2]: 3
Control of weed species after pre-emergence application, ALOMY [3]: 0
Control of weed species after pre-emergence application, LOLPE [4]: 1
Control of weed species after pre-emergence application, AVEFA [5]: 2
Control of weed species after pre-emergence application, TRAZW [6]: 0
Control of weed species after pre-emergence application, ECHCG [7]: 3
Control of weed species after post-emergence application, SETFA [8]: 4
Control of weed species after post-emergence application, ALOMY [9]: 0
Control of weed species after post-emergence application, LOLPE [10]: 2
Control of weed species after post-emergence application, TRAZW [11]: 1
Control of weed species after post-emergence application, ECHCG [12]: 4

O=C(COc1ccccc1)Nc1cnc(-c2cncc(F)c2)nc1C(F)(F)F [Compound F18]
Control of weed species after post-emergence application, AVEFA [1]: 3
Control of weed species after pre-emergence application, SETFA [2]: 4
Control of weed species after pre-emergence application, ALOMY [3]: 0
Control of weed species after pre-emergence application, LOLPE [4]: 0
Control of weed species after pre-emergence application, AVEFA [5]: 1
Control of weed species after pre-emergence application, TRAZW [6]: 0
Control of weed species after pre-emergence application, ECHCG [7]: 3
Control of weed species after post-emergence application, SETFA [8]: 4
Control of weed species after post-emergence application, ALOMY [9]: 0
Control of weed species after post-emergence application, LOLPE [10]: 1
Control of weed species after post-emergence application, TRAZW [11]: 1
Control of weed species after post-emergence application, ECHCG [12]: 4

O=C(Nc1cnc(-c2cncc(F)c2)nc1C(F)(F)F)C1CCCCC1 [Compound F27]
Control of weed species after post-emergence application, AVEFA [1]: 1
Control of weed species after pre-emergence application, SETFA [2]: 0
Control of weed species after pre-emergence application, ALOMY [3]: 0
Control of weed species after pre-emergence application, LOLPE [4]: 0
Control of weed species after pre-emergence application, AVEFA [5]: 0
Control of weed species after pre-emergence application, TRAZW [6]: 0
Control of weed species after pre-emergence application, ECHCG [7]: 0
Control of weed species after post-emergence application, SETFA [8]: 2
Control of weed species after post-emergence application, ALOMY [9]: 0
Control of weed species after post-emergence application, LOLPE [10]: 0
Control of weed species after post-emergence application, TRAZW [11]: 0
Control of weed species after post-emergence application, ECHCG [12]: 3

CC(C)(C)C(=O)Nc1cnc(-c2cncc(F)c2)nc1C(F)(F)F [Compound F6]
Control of weed species after post-emergence application, AVEFA [1]: 3
Control of weed species after pre-emergence application, SETFA [2]: 3
Control of weed species after pre-emergence application, ALOMY [3]: 0
Control of weed species after pre-emergence application, LOLPE [4]: 1
Control of weed species after pre-emergence application, AVEFA [5]: 2
Control of weed species after pre-emergence application, TRAZW [6]: 0
Control of weed species after pre-emergence application, ECHCG [7]: 4
Control of weed species after post-emergence application, SETFA [8]: 4
Control of weed species after post-emergence application, ALOMY [9]: 1
Control of weed species after post-emergence application, LOLPE [10]: 2
Control of weed species after post-emergence application, TRAZW [11]: 1
Control of weed species after post-emergence application, ECHCG [12]: 5

O=C1CCCN1c1cnc(-c2cncc(F)c2)nc1C(F)(F)F [Compound F22]
Control of weed species after post-emergence application, AVEFA [1]: 3
Control of weed species after pre-emergence application, SETFA [2]: 5
Control of weed species after pre-emergence application, ALOMY [3]: 0
Control of weed species after pre-emergence application, LOLPE [4]: 0
Control of weed species after pre-emergence application, AVEFA [5]: 0
Control of weed species after pre-emergence application, TRAZW [6]: 0
Control of weed species after pre-emergence application, ECHCG [7]: 3
Control of weed species after post-emergence application, SETFA [8]: 5
Control of weed species after post-emergence application, ALOMY [9]: 0
Control of weed species after post-emergence application, LOLPE [10]: 1
Control of weed species after post-emergence application, TRAZW [11]: 1
Control of weed species after post-emergence application, ECHCG [12]: 5

N#CCN(C(=O)C1CC1)c1cnc(-c2cncc(F)c2)nc1C(F)(F)F [Compound F30]
Control of weed species after post-emergence application, AVEFA [1]: 2
Control of weed species after pre-emergence application, SETFA [2]: 4
Control of weed species after pre-emergence application, ALOMY [3]: 0
Control of weed species after pre-emergence application, LOLPE [4]: 2
Control of weed species after pre-emergence application, AVEFA [5]: 2
Control of weed species after pre-emergence application, TRAZW [6]: 1
Control of weed species after pre-emergence application, ECHCG [7]: 3
Control of weed species after post-emergence application, SETFA [8]: 5
Control of weed species after post-emergence application, ALOMY [9]: 1
Control of weed species after post-emergence application, LOLPE [10]: 2
Control of weed species after post-emergence application, TRAZW [11]: 1
Control of weed species after post-emergence application, ECHCG [12]: 4
